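Assay format: 96-well plates, 48-hour exposure. The concentration for 50% growth inhibition is given as GI50.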 Activity calls are given as the source filed them. Rule as the data show it: active = GI50 up to about 1.1 µM and inactive = higher.
Experiments:
Test in all cases: inhibition of tumour cell growth, NCI panel, 48 h
UACC-62 = test system: UACC-62
OVCAR-8 = test system: OVCAR-8
OVCAR-4 = test system: OVCAR-4
MCF7 = test system: MCF7
OVCAR-5 = test system: OVCAR-5
MDA-MB-231 = test system: MDA-MB-231
A549 = test system: A549
Hs-578T = test system: Hs-578T
HCC 2998 = test system: HCC 2998
SR = test system: SR
HL-60 = test system: HL-60
786-0 = test system: 786-0
PC-3 = test system: PC-3
DU-145 = test system: DU-145
OVCAR-3 = test system: OVCAR-3
MDA-MB-435 = test system: MDA-MB-435
SK-OV-3 = test system: SK-OV-3
COLO 205 = test system: COLO 205
UACC-257 = test system: UACC-257

SMILES | GI50 (UACC-62) | GI50 (OVCAR-8) | GI50 (OVCAR-4) | GI50 (MCF7) | GI50 (OVCAR-5) | GI50 (MDA-MB-231) | GI50 (A549) | GI50 (Hs-578T) | GI50 (HCC 2998) | GI50 (SR) | GI50 (HL-60) | GI50 (786-0) | GI50 (PC-3) | GI50 (DU-145) | GI50 (OVCAR-3) | GI50 (MDA-MB-435) | GI50 (SK-OV-3) | GI50 (COLO 205) | GI50 (UACC-257)
Cc1nc2ccc(Cl)cc2c2c1CCN2c1ccc(F)cc1 | 15.2 µM (inactive) | 22.5 µM (inactive) | 5.9 µM (inactive) | 12.2 µM (inactive) | 84.9 µM (inactive) | 7.48 µM (inactive) | 43.5 µM (inactive) | 26.3 µM (inactive) | 23.6 µM (inactive) | 13.1 µM (inactive) | 17.1 µM (inactive) | 11.8 µM (inactive) | 11 µM (inactive) | 58.3 µM (inactive) | 21.8 µM (inactive) | 7.05 µM (inactive) | > 100 µM (inactive) | 9.95 µM (inactive) | 14.3 µM (inactive)
CC(NC(=O)N(C)C)NC(=O)N(C)C | > 10 µM (inactive) | > 10 µM (inactive) | > 10 µM (inactive) | > 10 µM (inactive) |  | > 10 µM (inactive) | > 10 µM (inactive) | > 10 µM (inactive) | > 10 µM (inactive) | > 10 µM (inactive) | > 10 µM (inactive) | > 10 µM (inactive) | > 10 µM (inactive) | > 10 µM (inactive) | > 10 µM (inactive) | > 10 µM (inactive) | > 10 µM (inactive) | > 10 µM (inactive) | > 10 µM (inactive)
CCOc1cc(/C=N/c2nc3cc4sc(/N=C/c5ccc(O)c(OCC)c5)nc4cc3s2)ccc1O | > 100 µM (inactive) | > 100 µM (inactive) | > 100 µM (inactive) | 82 µM (inactive) | > 100 µM (inactive) | > 100 µM (inactive) | 52.4 µM (inactive) | > 100 µM (inactive) | > 100 µM (inactive) | 12.9 µM (inactive) | 3.62 µM (inactive) | > 100 µM (inactive) | > 100 µM (inactive) | > 100 µM (inactive) | > 100 µM (inactive) | > 100 µM (inactive) | > 100 µM (inactive) | 24.7 µM (inactive) | > 100 µM (inactive)
CC(C)(C)c1ccc(O)c(Br)c1 | 95.9 µM (inactive) | > 100 µM (inactive) | > 100 µM (inactive) | > 100 µM (inactive) | > 100 µM (inactive) | > 100 µM (inactive) | > 100 µM (inactive) | > 100 µM (inactive) | 51.8 µM (inactive) | 37.3 µM (inactive) | 36.6 µM (inactive) | > 100 µM (inactive) | > 100 µM (inactive) | > 100 µM (inactive) | > 100 µM (inactive) | > 100 µM (inactive) | > 100 µM (inactive) | > 100 µM (inactive) | 26.2 µM (inactive)
CCOC(=O)c1c2c(n3ccccc13)C(=O)c1ccccc1C2=O | 67.9 µM (inactive) | > 100 µM (inactive) | > 100 µM (inactive) | 46 µM (inactive) | > 100 µM (inactive) | > 100 µM (inactive) | 3.82 µM (inactive) | 19.7 µM (inactive) | 2.55 µM (inactive) | > 100 µM (inactive) | > 100 µM (inactive) | 19.1 µM (inactive) | > 100 µM (inactive) | > 100 µM (inactive) | > 100 µM (inactive) | > 100 µM (inactive) | > 100 µM (inactive) | 26.5 µM (inactive) | > 100 µM (inactive)
CC(O)C1CC1(CO)CNc1cc(Cl)nc(N)n1 (centres undefined) | > 10 µM (inactive) | > 100 µM (inactive) | > 100 µM (inactive) | > 100 µM (inactive) | > 100 µM (inactive) | > 100 µM (inactive) | > 100 µM (inactive) | > 100 µM (inactive) | > 100 µM (inactive) | > 100 µM (inactive) | > 100 µM (inactive) | > 100 µM (inactive) | > 100 µM (inactive) | > 100 µM (inactive) | > 100 µM (inactive) | > 100 µM (inactive) | > 100 µM (inactive) | > 100 µM (inactive) | > 100 µM (inactive)
Cc1ccc2c(c1C)C(=O)C1(Cc3cc4c(cc3C1=O)CCC4)C2 (centres undefined) | > 100 µM (inactive) | > 100 µM (inactive) | > 100 µM (inactive) | > 100 µM (inactive) | > 100 µM (inactive) | > 100 µM (inactive) | > 100 µM (inactive) | > 100 µM (inactive) | > 100 µM (inactive) | > 100 µM (inactive) | > 100 µM (inactive) | > 100 µM (inactive) | > 100 µM (inactive) | > 100 µM (inactive) | 87.9 µM (inactive) | > 100 µM (inactive) | > 100 µM (inactive) | > 100 µM (inactive) | > 100 µM (inactive)
O=C1C=CC(=O)c2c1ccc1c3ccccc3n(-c3cccc([N+](=O)[O-])c3)c21 | 2.13 µM (inactive) | 2.83 µM (inactive) | 2.81 µM (inactive) | 2.29 µM (inactive) | > 10 µM (inactive) | 2.72 µM (inactive) | > 10 µM (inactive) | 3.76 µM (inactive) | > 10 µM (inactive) | 0.412 µM (active) | 0.474 µM (active) | 1.91 µM (inactive) | > 8.3 µM (inactive) | > 10 µM (inactive) | 2.13 µM (inactive) | 2.05 µM (inactive) | > 10 µM (inactive) | 1.42 µM (inactive) | 2.62 µM (inactive)
CCCCC1(O)CC2CC1C(C)C2(C)C (centres undefined) | > 100 µM (inactive) | > 100 µM (inactive) | > 100 µM (inactive) | > 100 µM (inactive) | > 100 µM (inactive) | > 100 µM (inactive) | > 100 µM (inactive) | 84.5 µM (inactive) | > 100 µM (inactive) | 44.8 µM (inactive) | 21.5 µM (inactive) | > 100 µM (inactive) | > 100 µM (inactive) | > 100 µM (inactive) | > 100 µM (inactive) | > 100 µM (inactive) | > 100 µM (inactive) | > 100 µM (inactive) | > 100 µM (inactive)
O=C1NC(O)c2cc3ccccc3cc2O1 (centres undefined) | 21.7 µM (inactive) | 39.2 µM (inactive) | 76 µM (inactive) | 29.6 µM (inactive) | > 100 µM (inactive) | 34.4 µM (inactive) | > 100 µM (inactive) | 37.1 µM (inactive) | > 100 µM (inactive) | 24.3 µM (inactive) | 28.4 µM (inactive) | > 100 µM (inactive) | 31.1 µM (inactive) | > 100 µM (inactive) | 26.4 µM (inactive) | 51.8 µM (inactive) | > 100 µM (inactive) | > 100 µM (inactive) | 61.1 µM (inactive)
Oc1ccc2ccccc2c1C(c1ccc(Cl)cc1)c1c(O)ccc2ccccc12 | 3.48 µM (inactive) | 3.33 µM (inactive) | 3.05 µM (inactive) | 3.57 µM (inactive) | 3.08 µM (inactive) | 3.17 µM (inactive) | 2.95 µM (inactive) | 0.989 µM (active) | 1.34 µM (inactive) | 2.82 µM (inactive) | 2.34 µM (inactive) | 3.66 µM (inactive) | 2.51 µM (inactive) | 3.37 µM (inactive) | 2.63 µM (inactive) | 3.18 µM (inactive) | 4.66 µM (inactive) | 2.06 µM (inactive) | 4.13 µM (inactive)
COc1ccc(C(=C(I)c2ccccc2)c2ccc(OC)cc2)cc1 | > 100 µM (inactive) | > 100 µM (inactive) | > 100 µM (inactive) | 21.6 µM (inactive) | > 100 µM (inactive) | > 100 µM (inactive) | > 100 µM (inactive) | > 100 µM (inactive) | > 100 µM (inactive) | > 100 µM (inactive) | 64.9 µM (inactive) | > 100 µM (inactive) | > 100 µM (inactive) | > 100 µM (inactive) | > 100 µM (inactive) | > 100 µM (inactive) | > 100 µM (inactive) | > 100 µM (inactive) | > 100 µM (inactive)
OCCCNCC(O)c1ccc(OCc2ccccc2)c(OCc2ccccc2)c1 (centres undefined) | 20 µM (inactive) | 11.4 µM (inactive) | 7.41 µM (inactive) | 8.04 µM (inactive) | 15.7 µM (inactive) | 14 µM (inactive) | 11.6 µM (inactive) | 13.6 µM (inactive) | 5.3 µM (inactive) | 10.9 µM (inactive) | 6.38 µM (inactive) | 7.48 µM (inactive) | 10.9 µM (inactive) | 16.9 µM (inactive) | 15.9 µM (inactive) | 7.8 µM (inactive) | 9.51 µM (inactive) | 4.76 µM (inactive) | 11.2 µM (inactive)
c1ccc(C2=NCCN2)c(C2=NCCN2)c1 | > 100 µM (inactive) | > 100 µM (inactive) | > 100 µM (inactive) | > 100 µM (inactive) | > 100 µM (inactive) | > 100 µM (inactive) | > 100 µM (inactive) | > 100 µM (inactive) | 57.3 µM (inactive) | > 100 µM (inactive) | > 100 µM (inactive) | > 100 µM (inactive) | > 100 µM (inactive) | > 100 µM (inactive) | > 100 µM (inactive) | > 100 µM (inactive) | > 100 µM (inactive) | > 100 µM (inactive) | > 100 µM (inactive)
Cc1ccc(/N=N/c2c(O)ccc3cc(S(=O)(=O)O)ccc23)c(C)c1 | > 100 µM (inactive) | > 100 µM (inactive) | > 100 µM (inactive) | > 100 µM (inactive) | > 100 µM (inactive) | > 100 µM (inactive) | > 100 µM (inactive) | > 100 µM (inactive) | > 100 µM (inactive) | > 100 µM (inactive) | 92.9 µM (inactive) | > 100 µM (inactive) | > 100 µM (inactive) | > 100 µM (inactive) | > 100 µM (inactive) | > 100 µM (inactive) | > 100 µM (inactive) | > 100 µM (inactive) | > 100 µM (inactive)

— ChEMBL document CHEMBL1201862, “PubChem BioAssay data set” (2004)
